Laboratory results from paper PMC11259064, “Enhanced binding of guanylated poly(A) RNA by the LaM domain of LARP1” (RNA Biology, 2024).
“And” between values parts separate entries of the source, which are not always exact repeats. Equal values may be shown once. Blank lines part the entries; values can stand above or below the compound they belong to.

Assays:
[1] = target: T1, human LARP1 LaM domain (residues 323–410) (Homo sapiens, UniProt Q6PKG0); assay: Isothermal titration calorimetry (ITC) of RNA ligands binding LARP1 (323-410); details: for Rel. aff. (affinity relative to AAAAAA): Figure 2B, higher = tighter binding than A6; for binding to the LaM domain by ITC (in words): LaM 40 μM in cell, cyclic dinucleotide 730-860 μM in syringe
T1 construct: human LARP1 LaM domain (residues 323–410); made in house; host or cells: E. coli
Description: ITC experiments were performed on the VP-ITC titration calorimeter (Malvern Instruments Ltd) except where noted. […] All experiments were carried out at 20°C with 29 injections of 10 µl. Results were analysed using ORIGIN software (MicroCal) and fitted to a binding model with a single set of identical sites, except where noted.

LARP1 323-410 Q333A [2] = target: T2, LARP1 323-410 Q333A (Homo sapiens, UniProt Q6PKG0); assay: ITC of RNA ligands binding LARP1 323-410 Q333A; details: Q333A mutant; LaM 30 (cell), RNA 300-600 (syringe)
T2 construct: ITC Data Collection and Analysis for LARP1 323-410 Q333A; His-tag; made in house; host or cells: E. coli
Description: (§1) ITC experiments were performed on the VP-ITC titration calorimeter (Malvern Instruments Ltd) except where noted. The syringe was loaded with 300 µM RNA sample, while the sample cell contained 20–30 µM LARP1 (323–410) sample. All experiments were carried out at 20°C with 29 injections of 10 µl. Results were analysed using ORIGIN software (MicroCal) and fitted to a binding model with a single set of identical sites, except where noted.
(§2) Table S3. ITC Data Collection and Analysis for LARP1 323-410 Q333A
(§3) RNA Kd, nM relative to DH, kcal mol-1 DS, cal mol-1 K-1 Conc., µM
(§4) 1Data acquired on iTC200 (Malvern Instruments Ltd).

LARP1 323-410 Q333A [3] = target: T3, LARP1 323-410 Q333A (Homo sapiens, UniProt Q6PKG0, Q410A); assay: ITC of RNA ligands binding LARP1 323-410 Q333A; details: Q333A mutant
T3 construct: ITC Data Collection and Analysis for LARP1 323-410 Q333A; His-tag; made in house; host or cells: E. coli
Description: as §1, §2, §3, §4

[4] = target: T1, human LARP1 LaM domain (residues 323–410); details: ITC of RNA oligonucleotides; cited from earlier work
[5] = target: T1, human LARP1 LaM domain (residues 323–410); assay: NMR titration of single nucleotides into 15N-labelled LARP1 (323-410), chemical shift changes; format: binding; details: for Kd: 0.1 mM 15N-LARP1 (323-410), 10 mM MES pH 6.3, 100 mM NaCl, 25°C, fit accounts for bound ligand, two nucleotide binding sites, read-out: Kd, binding affinity estimated from chemical shift change (I364 amide) as a function of nucleotide concentration
Description: We carried out NMR titrations with single nucleotides binding to^15N-labelled LARP1 LaM to isolate the individual nucleotide interactions (Figure 1A). The addition of nucleotides caused spectral changes similar to those observed with the hexamer A6 but with smaller shifts and fewer signals affected (Suppl. Figure S1). […] The signals with the largest changes were the amide of Ile364 and side chain amides of Gln333.
At 200 µM, 5´-GMP shifted the Gln333 signal twice as much as 5´-AMP. […] We used the size of the chemical shift change as a function of nucleotide concentration to estimate binding affinities (Figure 1C). […] This had the advantage that it also provided an estimate of the binding stoichiometry. For 5´-GMP, the stoichiometry was measured to be 2.04 with an affinity of 40 µM. […] This is at odds with the affinities of oligonucleotides measured by isothermal titration calorimetry (ITC).
NMR samples were exchanged into 10 mM MES pH 6.3, 100 mM NaCl, 1 mM TCEP. For NMR titrations, nucleotides were added to 0.1 mM^15N-labelled LARP1 (323–410) to final molar ratios of 5:1. All NMR experiments were performed at 25°C using a Bruker 600 MHz spectrometer. NMR spectra were processed using NMRPipe and analysed with SPARKY [51]. Binding affinities were measured by fitting the observed chemical shift changes accounting for bound ligand with a stoichiometry of two nucleotide binding sites.

[6] = ITC, 20°C, LaM 20-30 µM in cell, RNA 300 µM in syringe, single set of identical sites, read-out: Kd
[7] = ITC, 20°C, LaM in cell, RNA in syringe
[8] = Table S1, LaM in cell, RNA in syringe
[9] = ITC, 20°C, LaM in cell, RNA in syringe, read-out: Kd
[10] = reversed titration: RNA 15 (cell), LaM 300 (syringe)

- Kd [1, 6]: 0.29 µM
- ΔH [1, 7]: -19.4 kcal/mol
- ΔS [1, 7]: -36.2 cal mol^-1 K^-1
- Affinity relative to A6 [1, 8]: 1.16
Compound: 5´-APAPAPAPAPSA-3´ [(RP)-AAAAAPSA]

- ΔH [1, 7]: -23.1 kcal/mol
- ΔS [1, 7]: -57.1 cal mol^-1 K^-1
- Kd [1, 9]: 17 µM
- fold lower affinity of the (SP)-phosphorothioate ([1]; ITC, Figure 5D, compared with the (RP)-phosphorothioate): 60 fold
- Affinity relative to A6 [1, 8]: 68
Compound: 5´-APAPAPAPAPSA-3´ [(SP)-AAAAAPSA]

- ΔH [1, 7]: -23.9 kcal/mol
- ΔS [1, 7]: -56.2 cal mol^-1 K^-1
- Kd [1, 9]: 3.1 µM and ~3 µM
- Affinity relative to A6 [1, 8]: 12.4
Compound: 5´-APG-3´ [AG]

- Kd ([1]; ITC, 20°C, LaM 20-30 µM in cell, RNA 300 µM in syringe, single set of identical sites): not fitted
- Kd [1, 7]: Not fittable
- Affinity relative to A6 ([1]; Table S1, reversed titration: RNA 15 (cell), LaM 300 (syringe)): 11.2
- Kd ([1]; reversed titration: GG (15 µM) in cell + LaM (300 µM) in syringe, read-out: Kd): 2.8 µM and ~3 µM
- ΔH [1, 10]: -34.1 kcal/mol
- ΔS [1, 10]: -91.1 cal mol-1 K-1
Compound: 5´-GPG-3´ [GG]

- Kd [1, 6]: 1.8 ± 0.1 µM
- ΔH [1, 7]: -21.4 kcal/mol
- ΔS [1, 7]: -46.6 cal mol^-1 K^-1
- Affinity relative to A6 [1, 8]: 7.2
- Kd (LARP1 323-410 Q333A [2]): 100 ± 30 µM
- ΔH (LARP1 323-410 Q333A [3]): -11.0 kcal/mol
- ΔS (LARP1 323-410 Q333A [3]): -19.2 cal mol-1 K-1
Compound: 5´-UPUPUPUPUPU-3´ [UUUUUU]
- fold weaker binding affinity than A6 [4]: 11 fold

- binding to the LaM domain by ITC (in words) [1]: sub-micromolar affinity
- Affinity relative to A6 (site 1) ([1]; Table S1): 1.2
- Affinity relative to A6 (site 2) ([1]; Table S1): 220
- ΔH (site 1) ([1]; Table S1): 0 kcal/mol
- ΔH (site 2) ([1]; Table S1): 2.0 kcal/mol
- ΔS (site 1) ([1]; Table S1): 29.8 cal mol-1 K-1
- ΔS (site 2) ([1]; Table S1): 26.5 cal mol-1 K-1
- Kd ([1]; Table S1, LaM 40 (cell), ligand 730-750 (syringe), read-out: Kd (site 1)): 0.3 ± 0.3 µM
- Kd ([1]; Table S1, LaM 40 (cell), ligand 730-750 (syringe), read-out: Kd (site 2)): > 10 µM
- Kd ([1]; second site, fit with two independent sets of sites, LaM 40 μM + ligand 730-750 μM, read-out: Kd2): 54 µM
Compound: Nc1nc2c(ncn2[C@@H]2O[C@@H]3CO[P@](=O)(O)O[C@H]4[C@@H](O)[C@H](n5cnc6c(=O)[nH]c(N)nc65)O[C@@H]4CO[P@](=O)(O)O[C@H]3[C@H]2O)c(=O)[nH]1 [cyclic-di-GMP, Cyclic-di-GMP]

The next lines start with the compound.

Compound: 5´-APAPAPAPAPA-3´ [AAAAAA]
- Rel. aff. (affinity relative to AAAAAA) [1]: 1.0
- Kd [1, 6]: 0.25 µM
- ΔH [1, 7]: -19.9 kcal/mol
- ΔS [1, 7]: -37.6 cal mol^-1 K^-1
- Affinity relative to A6 [1, 8]: 1

Compound: 5´-APAPAPAPAPG-3´ [AAAAAG]
- Rel. aff. (affinity relative to AAAAAA) [1]: 1.9
- Kd [1, 6]: 0.13 ± 0.02 µM
- ΔH [1, 7]: -27.5 kcal/mol
- ΔS [1, 7]: -62.3 cal mol^-1 K^-1
- Kd (LARP1 323-410 Q333A [2]): 19 ± 2 µM
- ΔH (LARP1 323-410 Q333A [3]): -27.8 kcal/mol
- ΔS (LARP1 323-410 Q333A [3]): -73.2 cal mol-1 K-1

Compound: 5´-APAPAPAPGPA-3´ [AAAAGA]
- Rel. aff. (affinity relative to AAAAAA) [1]: 3.2
- ΔH [1, 7]: -29.5 kcal/mol
- ΔS [1, 7]: -68.0 cal mol^-1 K^-1
- Affinity relative to A6 [1, 8]: 0.32
- Kd (LARP1 323-410 Q333A [2]): 10 ± 6 µM
- ΔH (LARP1 323-410 Q333A [3]): -10.2 kcal/mol
- ΔS (LARP1 323-410 Q333A [3]): -11.9 cal mol-1 K-1

Compound: 5´-APAPAPGPAPA-3´ [AAAGAA]
- Rel. aff. (affinity relative to AAAAAA) [1]: 1.8
- Kd [1, 6]: 0.14 ± 0.02 µM
- ΔH [1, 7]: -27.7 kcal/mol
- ΔS [1, 7]: -63.2 cal mol^-1 K^-1
- Affinity relative to A6 [1, 8]: 0.56

Compound: Nc1nc2c(ncn2[C@@H]2O[C@@H]3COP(=O)(O)O[C@H]4[C@@H](O)[C@H](n5cnc6c(N)ncnc65)O[C@@H]4COP(=O)(O)O[C@H]3[C@H]2O)c(=O)[nH]1 [3',3'-cGAMP, 3‘,3’-cGAMP]
- Kd [1]: 0.7 ± 0.3 µM
- binding to the LaM domain by ITC (in words) [1]: sub-micromolar affinity
- Affinity relative to A6 (site 1) ([1]; Table S1): 2.8
- Affinity relative to A6 (site 2) ([1]; Table S1): 440
- ΔH (site 1) ([1]; Table S1): 0 kcal/mol
- ΔH (site 2) ([1]; Table S1): 4.8 kcal/mol
- ΔS (site 1) ([1]; Table S1): 28.3 cal mol-1 K-1
- ΔS (site 2) ([1]; Table S1): 34.4 cal mol-1 K-1
- Kd ([1]; read-out: Kd2, second site, fit with two independent sets of sites, LaM 40 μM + ligand 730-750 μM): 110 µM
- Kd ([1]; read-out: Kd (site 2), Table S1, LaM 40 (cell), ligand 730-750 (syringe)): > 10 µM

Compound: Nc1ncnc2c1ncn2[C@@H]1O[C@H](COP(=O)(O)O)[C@@H](OP(=O)(O)O)[C@H]1O [3',5'-ADP, 3´,5´-ADP]
- Gln333 signal change (in words) ([5]; NMR titration): broadened the Gln333 signal beyond detection
- Ile364 chemical shift change (in words) ([5]; NMR titration): small shift

Compound: Nc1ncnc2c1ncn2[C@@H]1O[C@H](CO)[C@@H](OP(=O)(O)O)[C@H]1O [3'-AMP, 3´-AMP]
- Ile364 chemical shift change (in words) ([5]; NMR titration): not appreciably shifted
- shift of the Ile364 peak, fold smaller than with 5´-AMP ([5]; NMR titration): 30 fold

Compound: Nc1ncnc2c1ncn2[C@@H]1O[C@H](COP(=O)(O)O)[C@@H](O)[C@H]1O [5'-AMP, 5´-AMP]
- Kd [5]: 130 µM

Compound: Nc1nc2c(ncn2[C@@H]2O[C@H](COP(=O)(O)O)[C@@H](O)[C@H]2O)c(=O)[nH]1 [5'-GMP, 5´-GMP]
- Kd [5]: 40 µM
- shift of the Gln333 signal relative to 5´-AMP ([5]; at 200 µM nucleotide): twice as much
- binding stoichiometry ([5]; from fit of NMR chemical shift changes): 2.04
